# Experimental data from US20150037399A1, “NOVEL USE OF PIPOXOLAN AND ITS PHARMACEUTICAL COMPOSITION” (China Medical University, priority 2013, published 2015).
# Tests used:
# [1] = test system: TUNEL positive cells; test: TUNEL assay in cortex of ischemic rats; assay type: in vivo, Sprague-Dawley (SD) rats; conditions: rat cortex, 24 hr after focal ischemia
# Description: Nine rats were randomly assigned into 3 treatment groups, three rats for each group. Group 1 rats were treated with saline and groups 2 and 3 treated with pipoxolan (10 mg/kg and 30 mg/kg, respectively). Focal ischemia was induced by occlusion of both CCA and the right MCA as previously described. Twenty four hours after focal ischemia, rats were deeply anesthetized by intraperitoneal injection of 50 mg/kg of zoletil® followed by intracardiac perfusion with 200 ml of 0.9% saline, followed by 4% paraformaldehyde in 0.1 M PBS and animals were decapitated. The percentage of positive TUNEL staining cells within areas of the cortex was estimated.
# [2] = test system: carotid-ligation induced intimal hyperplasia; test: Carotid ligation model, intima/media ratio (hematoxylin-eosin staining); assay type: in vivo, ICR mice; conditions: mice, vs control group
# Description: Male ICR mice, weighing 20 to 25 g, were used as a carotidligation model. Fifteen mice were randomly assigned to 3 treatment groups, five mice for each group. All mice were fasted overnight with free access to water, then anesthetized with zoletil® (25 mg/kg i.p.). Carotid ligation was performed by a midline neck incision and the left common carotid artery exposed. The carotid artery was completely ligated just proximal to the carotid bifurcation, and the right carotid artery served as a non-injured control artery. The incision was closed after ligation, and the animals were allowed to recover. On the day of carotid ligation, mice were randomized into 3 treatment groups and anesthetized as described. Group 1 mice were treated with saline and groups 2 and 3 treated with pipoxolan (10 mg/kg and 30 mg/kg, respectively). Subsequent pipoxolan and saline treatments were given by gastric gavage on the second day after carotid ligation and once daily for 28 days. […] Images were digitized and analyzed with Image-Pro software. The areas of the lumen, internal elastic lamina (IEL), and external elastic lamina (EEL) were determined by computerized planimetry. The intima area was calculated by subtracting the luminal from the IEL area, and media area was determined by subtracting the IEL area from the EEL area. The ratio of intima to media area (I/M ratio) was calculated and analyzed. […]
# [3] = test system: MEK; test: Western blot of MEK in PDGF-BB-stimulated VSMCs; assay type: cell-based
# Description: (§1) The role of matrix metalloproteinase-2/9 (MMP-2/9) and the Ras/MEK/ERK signaling pathways were used to evaluate the effect of pipoxolan on VSMCs migration. The protein expression levels were determined by Western blot analysis. Each vertical bars represented mean±S.E. **p<0.01 and ***p<0.001 compared with control group (n=6 in each group).
# [4] = test system: MMP-2; test: Western blot of MMP-2 in PDGF-BB-stimulated VSMCs; assay type: cell-based
# Description: as §1
# [5] = test system: cerebral infarction area in the brain of ischemic rats; test: Transient focal cerebral ischemia-reperfusion model, infarct area (TTC staining); assay type: in vivo, Sprague-Dawley (SD) rats; conditions: 24 hr after reperfusion, vs control group
# Description: Animals are male Sprague-Dawley (SD) rats, weighing 225-275 g and male ICR mice, weighing 25-30 g were purchased from BioLASCO Co. Ltd. (Taipei, Taiwan). All animals were fed regular chow and housed in standard cages at a constant temperature of 22±1° C. and relative humidity of 55±5% with 12 hr inverted light-dark cycle for 1 week prior to the experiments. Surgery was performed under zoletil® anesthesia. Five to six animals were used to obtain consistent data in each group. Pipoxolan was dissolved in dimethylsulfoxide (DMSO) and diluted in tissue culture medium before use. Focal ischemia was induced by occlusion of both common carotid arteries (CCA) and the right middle cerebral artery (MCA). Eighteen rats were randomly assigned to 3 treatment groups, six rats for each group. Group 1 rats were treated with saline and groups 2 and 3 treated with pipoxolan (10 mg/kg and 30 mg/kg, respectively). Rats were fasted overnight with free access to water. […] After 24 hr, all rats were alive and neurobehavioral deficits evaluation and infarct assessment were performed Twenty four hours following reperfusion, neurological function of rats was assessed. […] The image of each section was digitized and the infarct area was determined morphometrically using Image-Pro Plus 6.0 (Media Cybernetics, Md., USA).
smiles,measurement,setting,value
"Cl.O=C1OC(CCN2CCCCC2)OC1(c1ccccc1)c1ccccc1 (centres unmarked) [pipoxolan, 5,5-diphenyl-2-(2-piperidin-1-ylethyl)-1,3-dioxolan-4-one hydrochloride]",percent reduction of TUNEL positive cells,[1]; 10 mg/kg,31.25%
same,percent reduction of TUNEL positive cells,[1]; 30 mg/kg,46.88%
same,percent reduction of I/M ratio (intima/media),[2]; 10 mg/kg p.o. once daily for 28 days after carotid ligation,24.21%
same,percent reduction of I/M ratio (intima/media),[2]; 30 mg/kg p.o. once daily for 28 days after carotid ligation,47.20%
same,reduction of MEK protein level,[3]; 5 μM,21.67%
same,reduction of MEK protein level,[3]; 10 μM,21%
same,reduction of MEK protein level,[3]; 15 μM,26.67%
same,reduction of MMP-2 protein level,[4]; 10 μM,12.4%
same,reduction of MMP-2 protein level,[4]; 15 μM,24.4%
same,percent reduction of cerebral infarction,[5]; 10 mg/kg p.o. 1 hr prior to ischemia,43.18%
same,percent reduction of cerebral infarction,[5]; 30 mg/kg p.o. 1 hr prior to ischemia,73.43%
